Five molecules from patent US20220054561A1, “LACHNOSPIRACEAE MITIGATES AGAINST RADIATION-INDUCED HEMATOPOIETIC/GASTROINTESTINAL INJURY AND DEATH, AND PROMOTES CANCER CONTROL BY RADIATION” (priority 2018, published 2022) can be followed below.

SMILES strings stand for the structures.

What all share (type): in vivo, mouse
Assay [1] has as its system SPF C57BL/6 mice. As to the kind of experiment: Acetate, butyrate or propionate supplemented water for 8 weeks followed by lethal dose TBI. The source says:
FIG. 11A is a schematic of short chain fatty acids (SCFAs) treatment. Survival rates (FIG. 11B) and clinical scores (FIG. 11C) were monitored for 30 days. Femurs and spleens were stained for H&E and quantified for BM cellularity and spleen EMH scores (FIG. 11D). White pulp (WP, black dash circles), red pulp (RP, area between black solid lines), and megakaryocytes (black arrows) are shown. […] Total CMP, GMP and MEP percentages of Lin^− cells are shown in the right histogram. Representative images are shown. Mucus layer is indicated by area between dash lines and crypt length is indicated by double-headed arrow. Mucus layer thickness and crypt length were quantified. Error bars show SEM, *p<0.05, **p<0.01, *** p<0.001 determined by log-rank (Mantel Cox) test (B), Mann-Whitney test for area under the curve (AUC) (C) and Student's t test (D, E, F).
SPF C57BL/6 mice were treated with acetate, butyrate or propionate supplemented water for 8 weeks respectively, followed by a lethal dose TBI (FIG. 11A). […] To examine the effect of propionate on the gastrointestinal system, Alcian blue and periodic acid-Schiff (AB/PAS) staining of all intracellular mucin glycoproteins within goblet cells was completed.

Another assay concerns SPF mice. As to the kind of experiment: Tryptophan metabolites treatment and lethal radiation. The note with it: lethal radiation, monitored 30 days. How it is done:
Metabolite profiles were measured in fecal samples of AM-Ctrl and ES mice at Day 290 post TBI. Total ion chromatogram (TIC) metabolomic cloudplot (p<0.01) (FIG. 14A) and PCA score plot (14B) show distinct metabolites separation between these two groups. […] In FIG. 14D, metabolic network graphs (MetaMapp) were generated to integrate the biochemical pathways and chemical relationships of all detected metabolites. Identified metabolites are represented by circle nodes, with lower transparency indicating lower p-values from Welch's t-test. Lighter grey nodes denote metabolites with higher abundance in ES group; darker grey nodes denote those higher in AM-Ctrl group. Solid grey lines connecting distinct metabolites symbolize KEGG reactant pair links; dashed grey lines symbolize chemical similarity with a Tanimoto coefficient score >0.7. Tryptophan metabolites are highlighted by a large shadow (labelled), while other metabolite families are distinguished by separate shadowed areas. FIG. 14E is a schematic of tryptophan metabolites treatment. Survival rates (FIG. 14F) and clinical scores (FIG. 14G) were monitored for 30 days. Error bars show SEM, *p<0.05, **p<0.01, ***p<0.001 determined by log-rank (Mantel Cox) test (FIG. 14F) and Mann-Whitney test for area under the curve (AUC) (FIG. 14G). […]

In assay [2] the test system is SPF C57BL/6 mice. As to the kind of experiment: Butyrate contained water for 8 weeks followed by total body irradiation. To be noted: butyrate water 8 weeks, TBI; control recipients 43%. The procedure:
Butyrate production was determined by Mass Spectrometry from Non-TBI controls versus LL-TBI survivors (FIG. 7A), Control Recipients versus Survivor Recipients from dirty cage sharing expt. as shown in FIG. 2A (FIG. 7B), Control Recipients versus Survivor Recipients from FMT in GF mice expt. as shown in FIG. 4A (FIG. 7C). FIG. 7D includes a schematic of butyrate treatment of 6-8 weeks SPF C57BL/6 mice. After 8 weeks of butyrate treatment, recipients received total body irradiation. Survival rates (FIG. 7E), clinical scores (FIG. 7F), body weight changes (FIG. 7G) and body temperatures (FIG. 7H) were monitored for 30 days post TBI. (Control Recipients, n=14; Butyrate Recipients, n=16).
It is well established that Clostridiales and Lachnospiraceae bacterial groups produce short chain fatty acids (SCFAs) via fermentation of dietary polysaccharides^32-34. SCFAs especially butyrate, which is the most commonly studied SCFA, are important substrates for maintaining intestinal epithelium and play a role in regulating immune system and inflammatory response. Increased abundance of Lachnospiraceae is expected to enhance the capability to produce SCFAs. To validate this hypothesis, the concentrations of lactate, propionate, isobutyrate and butyrate were detected in each individual Lachnospiraceae strain within the disclosed 23 stains pool. […]

As for `CCC(=O)O` [propionate], the bone marrow cellularity entry in the assay on SPF C57BL/6 mice [1] (H&E femurs) is on record as “Elevated bone marrow cellularity”. For the same molecule, the “mucus thickness and crypt length” value in the assay with SPF C57BL/6 mice [1] (colon AB/PAS staining, versus control) is given as “significantly increased”. In addition, the “total Sca1−cKit+ progenitor cells (GMP, CMP, MEP) in BM” value with SPF C57BL/6 mice [1] (flow cytometry, versus control recipients) is on record as “significant increase”. Also, in the assay with SPF C57BL/6 mice [1] (supplemented water 8 weeks, lethal dose TBI, control group 28%), the Thirty-day survival rates amounted to 79%. Besides, in the assay with SPF C57BL/6 mice [1] (versus control group), the clinical scores result is given as “lower clinical scores”.

Take `CC(=O)O` [acetate]: the “protection (survival, clinical scores)” value in the assay with SPF C57BL/6 mice [1] (supplemented water 8 weeks, lethal dose TBI) is listed as “slight protection”. With `O=C(O)c1cc(=O)c2ccccc2[nH]1` [KYNA, kynurenic acid], the survival rates entry in the assay on SPF mice was “around 75%”. In the assay on SPF C57BL/6 mice [2], `CCCC(=O)O` [butyrate] registered a thirty-day survival rate of 68%.

As for `O=Cc1c[nH]c2ccccc12` [I3A, indole-3-carboxaldehyde], the survival rates result with SPF mice is recorded as “around 75%”.
